As a reminder, the melting point is the temperature, or range, at which the solid turns liquid.

With `CC1(C)C(=O)NCCN1C(=O)C(N)Cc1ccccc1` (centres undefined), the melting point is 70 to 73 °C.

For the compound `N#CCOc1ccccc1S(N)(=O)=O`, the melting point lay within 184 to 185 °C.

`COC(=O)CCCSc1c(Cc2cccc3ccccc23)sc2c1c(=O)n(C)c(=O)n2CC(C)C` had a melting point of 111 to 112 °C.

For the compound `COc1cc(OC)cc(N2CCN(C(=S)Nc3cc(C(C)O)c(C)cc3OC)CC2)c1` (centres undefined), the melting point fell in the range of 146 to 148 °C.

Compound `CCOC(=O)c1nc2scc(CN=[N+]=[N-])c2c(=O)[nH]1` came in with a melting point of 192 °C.

On to `COc1ccc2c3c(c(=O)oc2c1OC)CN(CC(C)=O)CC3`, for which the melting point is 145 to 147 °C.

Compound `CC(C)c1ccccc1SC1=C(O)CC(CCc2ccccc2)(c2ccccc2)OC1=O` (centres undefined) returned a melting point of 66 to 67 °C.

As to `COC(=O)C(Cc1cc(C)c(Oc2ccc(O)c(Cc3ccc(OC)nc3)c2)c(C)c1)NC(C)=O` (centres undefined), the melting point was in the range of 186 to 188 °C.

`Cc1cc2ccccn2c1C(=O)c1ccc(O)c(Br)c1`: the melting point lay in the range of 216 to 217 °C.

The compound `S=C(NCCC1=CCCCC1)Nc1ccccn1` showed a melting point of 153 to 155 °C.

As to `CCOC(=O)c1cn(C2CC2)c2nc(N3CCN(C(=O)OCC)CC3)c(F)cc2c1=O`, the melting point fell in the range of 184 to 186 °C.

`CC(C)c1ccc(C(=O)c2ccc(CC(=O)O)n2C)cc1` yielded a melting point of 98 to 101 °C.

Compound `CCOC(=O)[C@](CC(=O)OC1CC(C)CCC1C(C)C)(NC(=O)OC(C)(C)C)C(N)=O` (some centres undefined) returned a melting point of 176 °C.

Compound `Cn1c(C#N)c(-c2ccc(F)cc2)c2cccnc2c1=O` yielded a melting point of 231 to 232 °C.

Compound `COCOc1cc(C(F)(F)F)ccc1-c1cc(-c2cccc([N+](=O)[O-])c2)c(C#N)c(NC(=O)c2cccs2)n1` displayed a melting point of 139 to 140 °C.

`COc1cccc(-c2nc3cc(C4=NNC(=O)SC4C)ccc3n2CC(C)C)c1` (centres undefined): the melting point was 100 to 105 °C.

With `Cc1ccccc1C(=O)c1cc2c(c(Br)c1O)CCCC2`, the melting point was in the range of 151 to 153 °C.

For the compound `CCOC(=O)c1c(N2CCN(Cc3ccccc3)CC2)n[nH]c1C`, the melting point was in the range of 124 to 126 °C.

As for `COc1ccccc1NC(=O)c1sccc1S(=O)(=O)Nc1onc(C)c1Br`, the melting point was 74 to 80 °C.

On to `CN(C)C(=O)Sc1ccccc1C#N`, for which the melting point turned out to be 70 °C.

For the compound `CC(C)(Oc1ccc(OCc2ccccc2)cc1)C(=O)O`, the melting point is 134 to 137 °C.

As for `Nc1ncc(-c2ccc3c(c2)CCC(N2CCOCC2)CC3)c(N)n1` (centres undefined), the melting point worked out at 118 °C.

The compound `COCCOC(=O)COc1ccc(C(=O)[C@H](COC(C)(C)C)NC(=O)c2ccc(C(=N)NC(=O)OC(C)(C)C)cc2)cc1` displayed a melting point of 174 °C.

Turning to `CCOc1c(Cl)ccc(-c2cc(N)c(Cl)c(C(=O)OC)n2)c1F`, the melting point lay within 154 to 156 °C.

`Cc1ccccc1NC(=O)Nc1ccc(-c2c(C(C)C)sc3ncnc(N)c23)cc1`: the melting point lay in the range of 233 to 234 °C.

`COC(=O)c1ccc(C#CCCO)cc1` came in with a melting point of 95.5 to 96 °C.

On to `Cc1ccc(S(=O)(=O)N2[C@@H](c3nc(C)no3)CC[C@H]2c2ccc(F)cc2)cc1` (racemic), for which the melting point is 128 °C.

As to `CSc1ccc2c(=O)c(SC)cn(C)c2c1`, the melting point was in the range of 154 to 155 °C.

Compound `CC#Cc1ccc(C2CCC(C3CCC(CCC)CC3)CC2)cc1` (centres undefined) displayed a melting point of 82 °C.

Take `CCOC(=O)c1cccc(NC(=O)Oc2ccccc2)c1`: the melting point came out at 138 °C.

Consider `Fc1ccc2c(CCCN(c3ccncc3)c3csc4cccc(Cl)c34)noc2c1`, for which the melting point lay within 135 to 136 °C.

For `O=[N+]([O-])c1ccc2nc(-c3ccc4c(c3)OCO4)ncc2c1`, the melting point fell in the range of 220 to 222 °C.

On to `CC(C)c1nc(COC(=O)N[C@@H](C)C(=O)N[C@@H](Cc2ccccc2)C[C@H](O)[C@H](Cc2ccccc2)NC(=O)OCc2cncs2)cs1`, for which the melting point fell in the range of 59 to 61 °C.

As for `CCOC(=O)C(=CNCc1cnsn1)C(=O)c1cc(F)c(F)c(F)c1F`, the melting point was 154 to 156 °C.

`COc1ccc(-c2csc(Nc3ccccn3)n2)cc1OC` yielded a melting point of 211 to 214 °C.

As for `COc1ccc2c(c1)C1(CCN(Cc3ccccc3)CC1)OC2c1ccc(F)cc1` (centres undefined), the melting point lay in the range of 86 to 88 °C.

With `CCCc1c(OCCCOc2ccccc2C(=O)NCCCCc2cccnc2)ccc(C(C)=O)c1O`, the melting point is 104 to 107 °C.

With `O=C1c2cc(O)ccc2OCC1Cc1nccs1` (centres undefined), the melting point is 150 to 152 °C.

As for `Nc1ccc2nccnc2c1Br`, the melting point was 155 to 156 °C.

For `C#Cc1c2ccccc2nc2c(OC)ccc(OC)c12`, the melting point lay within 155 to 157 °C.

Turning to `COC(=O)C1=C(C)Nc2nc(N3CCOCC3)nc(N3CCOCC3)c2C1c1cccc([N+](=O)[O-])c1` (centres undefined), the melting point stood at 165 °C.

The compound `CCOC(=O)N1CCN(c2nc(N(C(C)=O)C3CC3)ccc2[N+](=O)[O-])CC1` returned a melting point of 90 to 93 °C.

Compound `O=C(O)c1cc(S(=O)(=O)CCO)ccc1[N+](=O)[O-]` had a melting point of 165 to 167 °C.

Take `CCCCCCC(CCCCCC)N1C(=O)c2ccc3c4cccc5c(NC(C)=O)ccc(c6ccc(c2c36)C1=O)c54`: the melting point is > 230 °C.

`CCCCC(O)c1cn(C(c2ccccc2)(c2ccccc2)c2ccccc2)cn1` (centres undefined): the melting point is 119 to 120 °C.

`CC(=CN1C(=O)c2ccccc2C1=O)c1ccco1` showed a melting point of 136 to 137 °C.

`CCCCOc1ccc(-c2ncc(C(=O)OCC)c(Cl)n2)cc1` gave a melting point of 79 °C.

`O=[N+]([O-])c1ccc(S(=O)(=O)N2CC3CN(Cc4ccccc4)CC(C2)O3)cc1`: the melting point was 98.4 to 101 °C.

`CNC1=NS(=O)N=C1NCCSCc1csc(NC(=N)N)n1` (centres undefined) gave a melting point of 175 to 177 °C.

`C=C(C)CC(OS(C)(=O)=O)C(Cl)(Cl)Cl` (centres undefined) displayed a melting point of 60 to 61 °C.

In turn, `CC(C)(C)c1ccc(C(O)(c2ccc(C(C)(C)C)cc2)c2ncc[nH]2)cc1` returned a melting point of 215 to 216 °C.

Regarding `COc1cc2c(cc1Nc1ncc(C(F)(F)F)c(Nc3ccc(N4CCOCC4)cc3OC)n1)CCOC(=O)N2C`, the melting point lay in the range of 232 to 234 °C.

In turn, `CCCNC(=O)CCc1ccc2c(c1)c(Cc1ccc(C(=O)O)cc1OC)cn2CCC` had a melting point of 68 to 78 °C.

On to `CCCCc1c(/C=C/C(=O)Oc2ccc([N+](=O)[O-])cc2)cc(OC)c2ccc(OC)cc12`, for which the melting point lay within 144 to 146 °C.

The compound `COc1ccc(C(=O)c2cccc(F)c2F)c(O)c1Cl` returned a melting point of 161 to 162 °C.

For the compound `CC(C)(C)c1cc(C(=O)c2c[nH]c(SC#N)c2SC#N)cc(C(C)(C)C)c1O`, the melting point lay within 143 to 144 °C.

`CCCN(CCC)c1nc2c(N3CCSCC3)nccc2c(=O)[nH]1` had a melting point of 226 °C.

Take `Clc1ccccc1C=C(CBr)c1ccccc1`: the melting point was 78 °C.

The compound `COC(=O)CNC(=O)c1nc(Cl)c2ccccc2c1O` returned a melting point of 129 °C.

Compound `Cc1cccc(N2CCN(c3ccc(Br)nn3)CC2)c1` returned a melting point of 146 °C.

`COc1ccc(CNC(=O)N(C)O)cc1OC`: the melting point was 132 to 133 °C.

Compound `c1csc(-c2ncc(COc3ccc(CCCCn4ccnc4)cc3)s2)c1` registered a melting point of 128 to 129 °C.

Consider `CCCCN1C(=O)C2CC(c3ccc(N)cc3)(C2)C1=O`, for which the melting point lay in the range of 178 to 179 °C.

For the compound `N#Cc1ccc(OCCCn2ccnc2)cc1`, the melting point lay in the range of 60 to 61.5 °C.

Compound `Cc1c[nH]c(-c2ccc(OCC(O)CO)cc2)n1` (centres undefined) registered a melting point of 196 to 199 °C.

With `CCOC(=O)c1nc2cccc(F)c2nc1C`, the melting point lay within 87 to 89 °C.

In turn, `CN(C)CCC1(CO)c2ccccc2N(C)c2ccccc21` displayed a melting point of 150 °C.

Turning to `Cc1ccc(-n2nc(C(=O)NC(C)(C)C)c3c2C2CCC3C2)cc1` (centres undefined), the melting point was in the range of 135 to 137 °C.

Regarding `O=C1c2ccccc2-c2c1c1ccccc1c(=O)n2CCCNS(=O)(=O)c1ccccc1`, the melting point was 216 to 218 °C.

As to `COc1ccc(C2(C#Cc3ccc(C#N)s3)CCC(=O)CC2)cc1OC1CCCC1`, the melting point lay within 106 to 107 °C.

Take `COc1ccc([N+](=O)[O-])c(C=CN2CCCC2)c1`: the melting point was 71 to 72 °C.

In the case of `NC(Cc1ccccc1)C(O)C(F)(F)F` (centres undefined), the melting point fell in the range of 110 to 111 °C.

The compound `OC(C(c1cccc(Cl)c1)n1ccnc1)C12CC3CC(CC(C3)C1)C2` (centres undefined) had a melting point of 115 °C.

On to `Cc1ccc(N(C)N=C(N)C(N)=O)cc1OCC(F)(F)C(F)(F)F`, for which the melting point was 129 to 130 °C.

`COc1ccnc(C(=O)c2[nH]c3cc(Cl)ccc3c2NC(C)=O)c1` yielded a melting point of 207 to 208 °C.

As for `COC(=O)c1ccc(OC)cc1S(N)(=O)=O`, the melting point lay in the range of 135 to 139 °C.

As for `O=C(Nc1ccccc1N1CCc2ccccc21)C1CCC1`, the melting point was 81 to 83.5 °C.

The compound `Oc1cc(Br)c2oc(-c3ccc(O)c(C(F)(F)F)c3)nc2c1` showed a melting point of 183 to 185 °C.

With `CCN(C(=O)C1CC1)c1cccc(-c2ccnc3ccnn23)c1`, the melting point was 127 to 129 °C.

The compound `CCOC(=O)C1=C(N)N=C(OCC)C(C(=O)OCC)C1c1ccc(SC)cc1` (centres undefined) yielded a melting point of 132 °C.

As for `Cc1ccc2nc3c(C)cc(=O)c(Cl)c-3sc2c1`, the melting point was in the range of 215 to 218 °C.

The compound `N#Cc1cccc(NC(=O)NCc2cccc3c2CN(C2CCC(=O)NC2=O)C3=O)c1` (centres undefined) gave a melting point of 330 to 333 °C.

On to `O=C1C(=Cc2ccccc2)COc2ccccc21`, for which the melting point was 112 to 113 °C.

For `CC1(C)OCC(N(c2nc(Cl)nc(N(C3COC(C)(C)OC3)C3COC(C)(C)OC3)n2)C2COC(C)(C)OC2)CO1`, the melting point was 133 to 135 °C.

The compound `CCOC(=O)c1sc(SC)c2c1CCc1sc(C)nc1-2` came in with a melting point of 143 to 144 °C.

The compound `CS(=O)(=O)c1ccc(-c2cc(CBr)nn2-c2ccc(Cl)cc2)cc1` had a melting point of 60 to 64 °C.

Consider `Oc1ccc(-c2nnc(CSCCOc3ccccc3)s2)cc1`, for which the melting point lay in the range of 127 to 128 °C.

`CCC1(C)CCN(C(=O)CN(C(=O)CNC(=O)Nc2cccc(C)c2)c2ccccc2)CC1` came in with a melting point of 204 °C.

As for `O=C1COc2ccc(C3=Nc4ccccc4SC3)cc2N1`, the melting point lay within 280 to 281 °C.

The values are drawn from a melting point compilation (Tetko et al.; mined from patent text by program, amines drawn as free bases though some values may be those of a salt).
